O=C1C=CC(=O)N1c1cc(F)c(Br)c(F)c1
Conditions | solubility (mole fraction)
in 1,4-dioxane, 287.65 K | 0.0122
in 1,4-dioxane, 290.65 K | 0.0133
in 1,4-dioxane, 293.85 K | 0.0146
in 1,4-dioxane, 297.15 K | 0.016
in 1,4-dioxane, 302.05 K | 0.0183
in 1,4-dioxane, 306.25 K | 0.0206
in 1,4-dioxane, 310.05 K | 0.023
in 1,4-dioxane, 317.15 K | 0.0281
in 1,4-dioxane, 321.65 K | 0.0318
in 1,4-dioxane, 324.45 K | 0.0342
in 1,4-dioxane, 330.85 K | 0.0408
in 1,4-dioxane, 335.35 K | 0.0464
in 1,4-dioxane, 339.15 K | 0.0513
in 1,4-dioxane, 342.25 K | 0.0558
in 1,4-dioxane, 347.25 K | 0.0639
in 1,4-dioxane, 353.65 K | 0.0759
in 2-butanone, 289.75 K | 0.0086
in 2-butanone, 299.25 K | 0.0112
in 2-butanone, 303.5 K | 0.0128
in 2-butanone, 308.75 K | 0.0149
in 2-butanone, 313 K | 0.017
in 2-butanone, 316.25 K | 0.0187
in 2-butanone, 318.6 K | 0.0202
in 2-butanone, 321.75 K | 0.022
in 2-butanone, 324.25 K | 0.0237
in 2-butanone, 327.05 K | 0.0257
in 2-butanone, 331.95 K | 0.0296
in 2-butanone, 335.25 K | 0.0326
in 2-butanone, 338.85 K | 0.036
in 2-butanone, 341.55 K | 0.039
in 2-butanone, 343.5 K | 0.0411
in 2-butanone, 345.25 K | 0.0432
in DMF, 289.45 K | 0.0208
in DMF, 293.65 K | 0.0228
in DMF, 300.83 K | 0.0269
in DMF, 305.65 K | 0.0301
in DMF, 308.85 K | 0.0324
in DMF, 317.55 K | 0.0398
in DMF, 320.45 K | 0.0426
in DMF, 322.95 K | 0.0452
in DMF, 325.25 K | 0.0477
in DMF, 333.55 K | 0.0582
in DMF, 337.65 K | 0.0643
in DMF, 342.65 K | 0.0722
in DMF, 346.65 K | 0.0794
in DMF, 350.75 K | 0.0876
in DMF, 353.35 K | 0.0932
in DMF, 356.25 K | 0.1
in DMSO, 289.35 K | 0.0116
in DMSO, 293.65 K | 0.0131
in DMSO, 297.05 K | 0.0143
in DMSO, 301.45 K | 0.0161
in DMSO, 305.95 K | 0.0184
in DMSO, 309.45 K | 0.0202
in DMSO, 314.05 K | 0.0231
in DMSO, 318.15 K | 0.026
in DMSO, 324.55 K | 0.0314
in DMSO, 328.05 K | 0.0348
in DMSO, 333.65 K | 0.0406
in DMSO, 338.85 K | 0.0473
in DMSO, 342.55 K | 0.0527
in DMSO, 346.05 K | 0.058
in DMSO, 349.35 K | 0.0637
in DMSO, 355.95 K | 0.0768
in cyclohexanone, 285.15 K | 0.0129
in cyclohexanone, 291.25 K | 0.0151
in cyclohexanone, 295.15 K | 0.0167
in cyclohexanone, 300.15 K | 0.0191
in cyclohexanone, 305.65 K | 0.0221
in cyclohexanone, 311.65 K | 0.0259
in cyclohexanone, 316.55 K | 0.0295
in cyclohexanone, 321.85 K | 0.0342
in cyclohexanone, 324.95 K | 0.037
in cyclohexanone, 328.75 K | 0.0411
in cyclohexanone, 333.25 K | 0.0462
in cyclohexanone, 337.35 K | 0.0515
in cyclohexanone, 341.35 K | 0.0572
in cyclohexanone, 348.35 K | 0.069
in cyclohexanone, 351.65 K | 0.0751
in cyclohexanone, 355.05 K | 0.0823
in toluene, 291.05 K | 0.0031
in toluene, 296.35 K | 0.0037
in toluene, 299.15 K | 0.0041
in toluene, 302.95 K | 0.0047
in toluene, 306.05 K | 0.0053
in toluene, 310.15 K | 0.0061
in toluene, 315.95 K | 0.0075
in toluene, 321.05 K | 0.0089
in toluene, 325.15 K | 0.0103
in toluene, 330.65 K | 0.0124
in toluene, 334.45 K | 0.014
in toluene, 340.75 K | 0.0175
in toluene, 343.55 K | 0.0192
in toluene, 348.45 K | 0.0226
in toluene, 350.65 K | 0.0244
in toluene, 354.45 K | 0.0276

From BigSolDB 2.1
